In patent publication US11845760B2, “PRMT5 inhibitors” (AMGEN INC., priority 2020, dated 2023):
Like-named read-outs stand apart in the source and are kept apart here.

Columns and labels:
HCT116 MTAP null cells = assay: HCT116 MTAP null cell line proliferation (CellTiter-Glo cell viability, 6 days); type: cell-based; details: HCT116 MTAP null cells, 6 days of treatment, CellTiter-Glo cell viability, read-out: HCT-116 MTAP null IC50
Method: (§1) To assess selective anti-proliferative activity of compounds of the invention in cells that have loss expression of MTAP, an HCT-116 isogenic cell line pair was utilized where one cell line was engineered to genetically knockout both MTAP alleles. Cell viability was then assessed in both the parent HCT-116 cell line and the MTAP null cell line after 6 days of treatment with compounds of the present invention. Selective anti-proliferative activity in the MTAP null cell line indicates MTA-cooperative inhibition of PRMT5 and ability to inhibit growth of cancer cells that have loss of MTAP.
(§2) HCT116 MTAP null and WT cells were seeded in 96-well tissue culture plates in RPMI 1640 media+10% fetal bovine serum. Plates were incubated overnight at 37° C. and 5% CO2. Cells were then treated with an 8- or 9-point serial dilution of compound, using a top concentration of 1, or 10 μM, 1:3 serial dilution steps and, a DMSO-only control. Cells were incubated in the presence of drug for 6 days. Effects on cell viability were measured with the CellTiter-Glo® Luminescent Cell Viability Assay (Promega) per manufacturer's recommendation. Assay plates were read on an EnVision™ Multilabel Reader using the Ultra-Sensitive luminescence module. IC50 values were calculated with GraphPad Prism v 5.01 using symmetrical sigmoidal dose-response least squares fit with Hill slope fixed to −1 and top constrain to 100% or GeneData Screener using a 4-parameter logistic model to fit dose response curves.
(§3) Alternatively, compounds could be assayed with a 384 well plate format:
(§4) Compounds were pre-spotted into 384 well plates with a 22-point serial dilution of compound, using a top concentration of 10 or 50 μM, 1:2 serial dilution steps and, a DMSO-only control. HCT116 MTAP null and WT cells were then seeded as above and after 6 days effects on cell viability were measured with the CellTiter-Glo® Luminescent Cell Viability Assay (Promega). Assay plates were read as above and IC50 values were calculated with GeneData Screener using a 4-parameter logistic model to fit dose response curves. The reported IC50 represents the value where the curve transits 50% of control.

HCT116 WT cells = assay: HCT116 WT cell line proliferation (CellTiter-Glo cell viability, 6 days); type: cell-based; details: HCT116 WT (parent) cells, 6 days of treatment, CellTiter-Glo cell viability, read-out: HCT-116 WT IC50
Method: as §1, §2, §3, §4

C[C@H]1COC[C@@H](c2ccc(C(F)(F)F)nc2)N1C(=O)c1cc2c3c(c(N)nc2cc1Cl)COC3 (racemic) [Example 302, (4-amino-7-chloro-1,3-dihydrofuro[3,4-c]quinolin-8-yl)((3R,5S)-3-methyl-5-(6-(trifluoromethyl)-3-pyridinyl)-4-morpholinyl)methanone and (4-amino-7-chloro-1,3-dihydrofuro[3,4-c]quinolin-8-yl)((3S,5R)-3-methyl-5-(6-(trifluoromethyl)-3-pyridinyl)-4-morpholinyl)methanone]
IC50 (HCT116 MTAP null cells; HCT116-MTAP null, 144 h): 0.011 µM | IC50 (HCT116 WT cells; Homo sapiens, HCT-116, 144 h): 0.167 µM

C[C@H]1COC[C@@H](c2ccc(C(F)(F)F)nc2)N1C(=O)c1ccc2nc(N)c3c(c2c1)COC3 (racemic) [Example 303, (4-amino-1,3-dihydrofuro[3,4-c]quinolin-8-yl)((3R,5S)-3-methyl-5-(6-(trifluoromethyl)-3-pyridinyl)-4-morpholinyl)methanone and (4-amino-1,3-dihydrofuro[3,4-c]quinolin-8-yl)((3S,5R)-3-methyl-5-(6-(trifluoromethyl)-3-pyridinyl)-4-morpholinyl)methanone]
IC50 (HCT116 MTAP null cells; HCT116-MTAP null, 144 h): 0.134 µM | IC50 (HCT116 WT cells; Homo sapiens, HCT-116, 144 h): 2.86 µM

C[C@H]1OCc2c1c(N)nc1ccc(C(=O)N3[C@@H](C)COC[C@H]3c3ccc(C(F)(F)F)nc3)cc21 (racemic) [Example 305, ((3R)-4-amino-3-methyl-1,3-dihydrofuro[3,4-c]quinolin-8-yl)((3R,5S)-3-methyl-5-(6-(trifluoromethyl)-3-pyridinyl)-4-morpholinyl)methanone and ((3R)-4-amino-3-methyl-1,3-dihydrofuro[3,4-c]quinolin-8-yl)((3S,5R)-3-methyl-5-(6-(trifluoromethyl)-3-pyridinyl)-4-morpholinyl)methanone]
IC50 (HCT116 MTAP null cells; HCT116-MTAP null, 144 h): 0.049 µM | IC50 (HCT116 WT cells; Homo sapiens, HCT-116, 144 h): 0.611 µM

CC(C)Oc1ccc([C@@H]2COC[C@H](C)N2C(=O)c2cc3c4c(c(N)nc3cn2)COC4)cn1 (racemic) [Example 306, (4-amino-1,3-dihydrofuro[3,4-c][1,7]naphthyridin-8-yl)((3R,5S)-3-methyl-5-(6-(2-propanyloxy)-3-pyridinyl)-4-morpholinyl)methanone and (4-amino-1,3-dihydrofuro[3,4-c][1,7]naphthyridin-8-yl)((3S,5R)-3-methyl-5-(6-(2-propanyloxy)-3-pyridinyl)-4-morpholinyl)methanone]
IC50 (HCT116 MTAP null cells; HCT116-MTAP null, 144 h): 0.096 µM | IC50 (HCT116 WT cells; Homo sapiens, HCT-116, 144 h): 2.13 µM

C[C@H]1OCc2c1c(N)nc1cnc(C(=O)N3[C@@H](C)COC[C@H]3c3ccc(C(F)(F)F)cn3)cc21 (racemic) [Example 307, ((3R)-4-amino-3-methyl-1,3-dihydrofuro[3,4-c][1,7]naphthyridin-8-yl)((3R,5S)-3-methyl-5-(5-(trifluoromethyl)-2-pyridinyl)-4-morpholinyl)methanone and ((3R)-4-amino-3-methyl-1,3-dihydrofuro[3,4-c][1,7]naphthyridin-8-yl)((3S,5R)-3-methyl-5-(5-(trifluoromethyl)-2-pyridinyl)-4-morpholinyl)methanone]
IC50 (HCT116 MTAP null cells; HCT116-MTAP null, 144 h): 0.022 µM | IC50 (HCT116 WT cells; Homo sapiens, HCT-116, 144 h): 0.492 µM

C[C@H]1OCc2c1c(N)nc1cnc(C(=O)N3[C@@H](C)COC[C@H]3c3ccc(C(F)(F)F)nc3)cc21 (racemic) [Example 308, ((3R)-4-amino-3-methyl-1,3-dihydrofuro[3,4-c][1,7]naphthyridin-8-yl)((3R,5S)-3-methyl-5-(6-(trifluoromethyl)-3-pyridinyl)-4-morpholinyl)methanone and ((3R)-4-amino-3-methyl-1,3-dihydrofuro[3,4-c][1,7]naphthyridin-8-yl)((3S,5R)-3-methyl-5-(6-(trifluoromethyl)-3-pyridinyl)-4-morpholinyl)methanone]
IC50 (HCT116 MTAP null cells; HCT116-MTAP null, 144 h): 0.046 µM | IC50 (HCT116 WT cells; Homo sapiens, HCT-116, 144 h): 1.72 µM

C[C@H]1COC[C@@H](c2ccc(C(F)(F)F)nc2)N1C(=O)c1cc2c3c(c(N)nc2cc1F)COC3 (racemic) [Example 309, (4-amino-7-fluoro-1,3-dihydrofuro[3,4-c]quinolin-8-yl)((3R,5S)-3-methyl-5-(6-(trifluoromethyl)-3-pyridinyl)-4-morpholinyl)methanone and (4-amino-7-fluoro-1,3-dihydrofuro[3,4-c]quinolin-8-yl)((3S,5R)-3-methyl-5-(6-(trifluoromethyl)-3-pyridinyl)-4-morpholinyl)methanone]
IC50 (HCT116 MTAP null cells; HCT116-MTAP null, 144 h): 0.04 µM | IC50 (HCT116 WT cells; Homo sapiens, HCT-116, 144 h): 0.688 µM

C[C@H]1OCc2c1c(N)nc1cnc(C(=O)N3[C@@H](C)COC[C@H]3c3ccc(Cl)nc3)cc21 (racemic) [Example 310, ((3R)-4-amino-3-methyl-1,3-dihydrofuro[3,4-c][1,7]naphthyridin-8-yl)((3R,5S)-3-(6-chloro-3-pyridinyl)-5-methyl-4-morpholinyl)methanone and ((3R)-4-amino-3-methyl-1,3-dihydrofuro[3,4-c][1,7]naphthyridin-8-yl)((3S,5R)-3-(6-chloro-3-pyridinyl)-5-methyl-4-morpholinyl)methanone]
IC50 (HCT116 MTAP null cells; HCT116-MTAP null, 144 h): 0.066 µM | IC50 (HCT116 WT cells; Homo sapiens, HCT-116, 144 h): 3.23 µM

C[C@H]1COC[C@@H](c2ccc(Cl)nc2)N1C(=O)c1cc2c3c(c(N)nc2cn1)COC3 (racemic) [Example 311, (4-amino-1,3-dihydrofuro[3,4-c][1,7]naphthyridin-8-yl)((3R,5S)-3-(6-chloro-3-pyridinyl)-5-methyl-4-morpholinyl)methanone and (4-amino-1,3-dihydrofuro[3,4-c][1,7]naphthyridin-8-yl)((3S,5R)-3-(6-chloro-3-pyridinyl)-5-methyl-4-morpholinyl)methanone]
IC50 (HCT116 MTAP null cells; HCT116-MTAP null, 144 h): 0.148 µM | IC50 (HCT116 WT cells; Homo sapiens, HCT-116, 144 h): 6.74 µM

C[C@H]1OCc2c1c(N)nc1ccc(C(=O)N3[C@@H](C)COC[C@H]3c3ccc(Cl)nc3)cc21 (racemic) [Example 312, ((3R)-4-amino-3-methyl-1,3-dihydrofuro[3,4-c]quinolin-8-yl)((3R,5S)-3-(6-chloro-3-pyridinyl)-5-methyl-4-morpholinyl)methanone and ((3R)-4-amino-3-methyl-1,3-dihydrofuro[3,4-c]quinolin-8-yl)((3S,5R)-3-(6-chloro-3-pyridinyl)-5-methyl-4-morpholinyl)methanone]
IC50 (HCT116 MTAP null cells; HCT116-MTAP null, 144 h): 0.071 µM | IC50 (HCT116 WT cells; Homo sapiens, HCT-116, 144 h): 3 µM

C[C@H]1COC[C@@H](c2ccc(Cl)nc2)N1C(=O)c1cc2c3c(c(N)nc2cc1F)COC3 (racemic) [Example 313, (4-amino-7-fluoro-1,3-dihydrofuro[3,4-c]quinolin-8-yl)((3R,5S)-3-(6-chloro-3-pyridinyl)-5-methyl-4-morpholinyl)methanone and (4-amino-7-fluoro-1,3-dihydrofuro[3,4-c]quinolin-8-yl)((3S,5R)-3-(6-chloro-3-pyridinyl)-5-methyl-4-morpholinyl)methanone]
IC50 (HCT116 MTAP null cells; HCT116-MTAP null, 144 h): 0.033 µM | IC50 (HCT116 WT cells; Homo sapiens, HCT-116, 144 h): 0.85 µM

C[C@H]1COC[C@@H](c2ccc(OC(F)F)nn2)N1C(=O)c1cc2c3c(c(N)nc2cc1F)COC3 (racemic) [Example 314, (4-amino-7-fluoro-1,3-dihydrofuro[3,4-c]quinolin-8-yl)((3R,5S)-3-(6-(difluoromethoxy)-3-pyridazinyl)-5-methyl-4-morpholinyl)methanone and (4-amino-7-fluoro-1,3-dihydrofuro[3,4-c]quinolin-8-yl)((3S,5R)-3-(6-(difluoromethoxy)-3-pyridazinyl)-5-methyl-4-morpholinyl)methanone]
IC50 (HCT116 MTAP null cells; HCT116-MTAP null, 144 h): 0.015 µM | IC50 (HCT116 WT cells; Homo sapiens, HCT-116, 144 h): 0.606 µM

C[C@@H]1COC[C@H](c2ccc(OC(F)F)nn2)N1C(=O)c1ccc2nc(N)c3c(c2c1)COC3 (racemic) [Example 315, (4-amino-1,3-dihydrofuro[3,4-c]quinolin-8-yl)((3R,5S)-3-(6-(difluoromethoxy)-3-pyridazinyl)-5-methyl-4-morpholinyl)methanone and (4-amino-1,3-dihydrofuro[3,4-c]quinolin-8-yl)((3S,5R)-3-(6-(difluoromethoxy)-3-pyridazinyl)-5-methyl-4-morpholinyl)methanone]
IC50 (HCT116 MTAP null cells): 0.106 µM | IC50 (HCT116 WT cells): 4.75 µM

C[C@H]1COC[C@@H](c2ccc(OC(F)F)nc2)N1C(=O)c1cc2c3c(c(N)nc2cn1)COC3 (racemic) [Example 318, (4-amino-1,3-dihydrofuro[3,4-c][1,7]naphthyridin-8-yl)((3R,5S)-3-(6-(difluoromethoxy)-3-pyridinyl)-5-methyl-4-morpholinyl)methanone and (4-amino-1,3-dihydrofuro[3,4-c][1,7]naphthyridin-8-yl)((3S,5R)-3-(6-(difluoromethoxy)-3-pyridinyl)-5-methyl-4-morpholinyl)methanone]
IC50 (HCT116 MTAP null cells; HCT116-MTAP null, 144 h): 0.082 µM | IC50 (HCT116 WT cells; Homo sapiens, HCT-116, 144 h): 2.78 µM
